Measurements from PubChem BioAssay AID1963866 (Molecular Pharmacology Branch, DTP, NCI, 2024).
pIC50: −log10 of the molar value.

System: PDC KRAS tumor spheroids with HUVEC/MSC, viability
Experiment: Anticancer human tumor 349418-098-R-PDC patient-derived lung adenocarcinoma cell line growth inhibition [KRAS2]
Conditions: for pIC50: curve of first compound; for viability, T/C: stronger effect = lower value
Summary of the method: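 KRAS-mutant tumor cells were grown as spheroids with HUVEC endothelial cells and human MSCs as stroma. Targeted agents were tested alone and with KRAS pathway inhibitors. Doses started at or near clinical Cmax, or 10 microM, descending half-log.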

[1] = second compound 0.1 µM, first compound 0.0316 µM
[2] = second compound 0.1 µM, first compound 0.1 µM
[3] = second compound 0.1 µM, first compound 0.316 µM
[4] = second compound 0.1 µM, first compound 1 µM
[5] = second compound 0.1 µM, first compound 3.16 µM
[6] = second compound 0.1 µM, first compound 10 µM
[7] = second compound 0.316 µM, first compound 0.0316 µM
[8] = second compound 0.316 µM, first compound 0.1 µM
[9] = second compound 0.316 µM, first compound 0.316 µM
[10] = second compound 0.316 µM, first compound 1 µM
[11] = second compound 0.316 µM, first compound 3.16 µM
[12] = second compound 0.316 µM, first compound 10 µM
[13] = second compound 1 µM, first compound 0.0316 µM
[14] = second compound 1 µM, first compound 0.1 µM
[15] = second compound 1 µM, first compound 0.316 µM
[16] = second compound 1 µM, first compound 1 µM
[17] = second compound 1 µM, first compound 3.16 µM
[18] = second compound 1 µM, first compound 10 µM
[19] = second compound 3.16 µM, first compound 0.0316 µM
[20] = second compound 3.16 µM, first compound 0.1 µM
[21] = second compound 3.16 µM, first compound 0.316 µM
[22] = second compound 3.16 µM, first compound 1 µM
[23] = second compound 3.16 µM, first compound 3.16 µM
[24] = second compound 3.16 µM, first compound 10 µM
[25] = second compound 10 µM, first compound 0.0316 µM
[26] = second compound 10 µM, first compound 0.1 µM
[27] = second compound 10 µM, first compound 0.316 µM
[28] = second compound 10 µM, first compound 1 µM
[29] = second compound 10 µM, first compound 3.16 µM
[30] = second compound 10 µM, first compound 10 µM
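Further: spheroids exposed to compounds for seven days before readout.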

Row | Compound | pIC50 (second compound 0.1 µM) | pIC50 (second compound 0.316 µM) | pIC50 (second compound 1 µM) | pIC50 (second compound 3.16 µM) | pIC50 (second compound 10 µM) | viability, T/C [1] [%] | viability, T/C [2] [%] | viability, T/C [3] [%] | viability, T/C [4] [%] | viability, T/C [5] [%] | viability, T/C [6] [%] | viability, T/C [7] [%] | viability, T/C [8] [%] | viability, T/C [9] [%] | viability, T/C [10] [%] | viability, T/C [11] [%] | viability, T/C [12] [%] | viability, T/C [13] [%] | viability, T/C [14] [%] | viability, T/C [15] [%] | other results
1 | COC(=O)c1ccc2c(C(=Nc3ccc(N(C)C(=O)CN4CCN(C)CC4)cc3)c3ccccc3)c(O)[nH]c2c1 + CC1OCC2(CCN(c3cnc(Sc4ccnc(N)c4Cl)c(N)n3)CC2)C1N | 5.84 | 5.84 | 5.91 | 5.97 | 6.22 | 100 | 104 | 82.3 | 68.1 | 12.1 | 15.3 | 102 | 93.3 | 92.5 | 68.7 | 7.79 | 14.9 | 82.6 | 114 | 71.5 | viability, T/C [16]: 63.6%; viability, T/C [17]: 12.2%; viability, T/C [18]: 12.3%; viability, T/C [19]: 79.2%; viability, T/C [20]: 101%; viability, T/C [21]: 75.3%; viability, T/C [22]: 54.3%; viability, T/C [23]: 14%; viability, T/C [24]: 11.5%; viability, T/C [25]: 81.2%; viability, T/C [26]: 75.4%; viability, T/C [27]: 61.5%; viability, T/C [28]: 42.2%; viability, T/C [29]: 14.8%; viability, T/C [30]: 7.52%
2 | COc1cc(Nc2ncc3c(n2)-c2ccc(Cl)cc2C(c2c(F)cccc2OC)=NC3)ccc1C(=O)O + CC1OCC2(CCN(c3cnc(Sc4ccnc(N)c4Cl)c(N)n3)CC2)C1N | 7.37 | 7.36 | 7.30 | > 7.50 | 7.47 | 56.5 | 32.4 | 32.4 | 40.1 | 30.8 | 24 | 57.4 | 27.8 | 38.8 | 26.4 | 40.2 | 20.4 | 57.4 | 35.4 | 39 | viability, T/C [16]: 38.1%; viability, T/C [17]: 27.3%; viability, T/C [18]: 25%; viability, T/C [19]: 39.4%; viability, T/C [20]: 36.3%; viability, T/C [21]: 28%; viability, T/C [22]: 28.7%; viability, T/C [23]: 32.9%; viability, T/C [24]: 28.4%; viability, T/C [25]: 51%; viability, T/C [26]: 33.5%; viability, T/C [27]: 32.8%; viability, T/C [28]: 31.1%; viability, T/C [29]: 31.4%; viability, T/C [30]: 27%
3 | COc1cc2nccc(Oc3ccc(NC(=O)C4(C(=O)Nc5ccc(F)cc5)CC4)cc3)c2cc1OC + CC1OCC2(CCN(c3cnc(Sc4ccnc(N)c4Cl)c(N)n3)CC2)C1N | 5.77 | 5.78 | 5.82 | 5.84 | 5.87 | 113 | 104 | 99.9 | 78.6 | 12.3 | 21.2 | 108 | 98.4 | 96.1 | 79.1 | 10.4 | 17.9 | 104 | 114 | 99.5 | viability, T/C [16]: 68.7%; viability, T/C [17]: 14.3%; viability, T/C [18]: 22.5%; viability, T/C [19]: 94.4%; viability, T/C [20]: 99.7%; viability, T/C [21]: 85.6%; viability, T/C [22]: 66.1%; viability, T/C [23]: 13.7%; viability, T/C [24]: 15.5%; viability, T/C [25]: 86.4%; viability, T/C [26]: 80.9%; viability, T/C [27]: 72.6%; viability, T/C [28]: 61.5%; viability, T/C [29]: 16.8%; viability, T/C [30]: 17.3%
